Experiment in all cases: NCI tumour cell line growth inhibition, 48 h
In experiment [1] the test system is XF 498 CNS.
Experiment [2] relates to DLD-1 colon.
Experiment [3] deals with LXFL 529 NSCLC.
Experiment [4] concerns DMS 114 small cell lung.
The subject of experiment [5] is RXF-631 renal.
In experiment [6] the test system is M19-MEL melanoma.
The subject of experiment [7] is DU-145 prostate.
Experiment [8] deals with P388 leukemia.
In experiment [9] the test system is MDA-N.
Experiment [10] has as its system MDA-MB-435.
Experiment [11] has as its system P388/ADR leukemia.

Structures are written as SMILES. Values joined by “and” are separate entries in the source; they are usually repeats but may differ in a detail not shown here. Equal entries are not always repeated.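 Values below derive from 48-hour exposures of cells grown in 96-well plates, with endpoints linearly interpolated between the two concentrations bracketing the appropriate inhibition level. GI50 marks 50% less growth. TGI marks complete inhibition of growth.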

With `Cc1ccc(C2=NO[C@@H]3C(=O)N(c4ccc(Cc5ccc(N6C(=O)[C@H]7C(c8ccc(C)cc8)=NO[C@H]7C6=O)cc5)cc4)C(=O)[C@H]23)cc1`, the TGI in experiment [1], in experiment [2], in [3], in experiment [4], in [5] and in experiment [6] was above 100 µM in each case.
With `Cc1ccc2[nH]c(=O)c(C(C#N)c3ccccc3)nc2c1` (stereo not given), the TGI in [2], in experiment [3] and in experiment [5] was above 100 µM in each case.
Consider `O=C(NCC#CCO)C(F)(F)F`, for which the TGI in experiment [1], in experiment [2], in [4] and in experiment [5] was above 100 µM throughout.
With `CCC(=C(c1ccc(OCc2ccccc2)cc1)c1ccc(OCc2ccccc2)cc1)c1ccc(OC)cc1`, the TGI in [1], in [2], in [3], in experiment [4] and in experiment [6] was above 100 µM in each case.
With `CCOC(=O)C1=C(C)N(NC(=O)c2ccccc2)C2(O)CCCC12C(=O)OCC` (stereo not given), the TGI in experiment [1], in [3], in experiment [4], in experiment [5] and in experiment [6] was above 100 µM in each case.
As to `Cc1cc(C)n(-c2c(O)ccc(O)c2-n2nc(C)cc2C)n1`, the TGI in [1], in [2], in [3], in experiment [4], in experiment [5] and in [6] was above 100 µM in each case.
For the compound `COc1ccc2c(c1)[n+]([O-])c(-c1nc3ccccc3s1)c(N)[n+]2[O-]`, the TGI in experiment [2], in experiment [3], in [5] and in experiment [6] was above 100 µM in each case.
On to `CC1C2=CC=C(O2)C(C)(C)C2=CC=C(O2)C(C)(C)C2=CC=C(O2)C(C)(C)C2=CC=C1O2`, for which the TGI in experiment [1], in [3] and in [6] was above 100 µM throughout.
Regarding `O=C(O)/C(Cl)=C(\Cl)C(=O)Nc1ccccc1`, the TGI in [2], in experiment [3], in [5] and in [6] was above 100 µM throughout.
Regarding `CSC(=S)NNC(=O)c1ccncc1`, the TGI in [1] is 50 µM; in experiment [2], 34.6 µM; in [3], 29.3 µM; in experiment [4], 28.6 µM; in [5] it was above 100 µM; in [6], 35.8 µM.
On to `COC(=O)C1=CC2OC1(C)C1(CC1)C2=O` (stereo not given), for which the TGI is 28.1 µM in [1], 37.3 µM in [2], 32.9 µM in experiment [3] and 51.7 µM in experiment [6].
In the case of `Nc1nc(N)c(-c2ccc(Cl)cc2)c(CCC(=O)Nc2cccc(C(F)(F)F)c2)n1`, the TGI in [1], in experiment [2], in experiment [3], in experiment [4] and in experiment [5] was above 100 µM each time.
As for `COC(=O)C1C(=O)O[C@@H](c2ccc(OC)cc2OC)C1C(=O)OC` (stereo not given in full), the TGI in experiment [1], in [2], in experiment [3], in [4] and in experiment [6] was above 100 µM in each case.
As for `CC1OC(O)CC(OC(=O)c2ccccc2)C1OC(=O)c1ccccc1` (stereo not given), the TGI was 34.6 µM in experiment [1], 28.4 µM in experiment [2], 29.8 µM in [3] and 31.6 µM in experiment [6].
In the case of `Cn1c2cccc3nnc4cccc(c4c32)n1C`, the TGI in [1], in [2], in experiment [3], in experiment [4], in experiment [5] and in [6] was above 100 µM each time.
With `C=CCN(N=O)C(=O)N(CCC)CCCCC(NC(C)=O)C(=O)NCc1ccccc1` (stereo not given), the TGI in [1], in experiment [3], in experiment [4], in experiment [5] and in experiment [6] was above 100 µM each time.
Regarding `COC(=O)C1=CC2OC13CC1CCC3(C2=O)C1(C)C` (stereo not given), the TGI in [1] is 13.4 µM; in experiment [3] it was 16.7 µM; in experiment [4], 20.3 µM; in [5] it was 28 µM; in experiment [6], 24.5 µM.
Turning to `CCN(CC)c1ccc2c(c1)N=C1N=CC=CN1C2(c1ccc(N(C)C)cc1)c1ccc(N(C)C)cc1`, the TGI came out at 12.6 µM in experiment [1]; 17.9 µM in experiment [2]; 12.3 µM in experiment [3]; 19.4 µM in [5]; 19.3 µM in experiment [6].
Consider `COc1ccccc1NC(=O)C1=C(C)NC(C)=C(C(=O)Nc2ccccc2OC)C1c1ccccc1OC`, for which the TGI in experiment [2], in experiment [3], in [4], in experiment [5] and in experiment [6] was above 100 µM each time.
As to `CN=S(=O)(C[C@]1(O)CC2OC1C1OC(C)(C)OC21)c1ccccc1` (stereo not given in full), the TGI in experiment [1], in experiment [3], in [4] and in experiment [6] was above 100 µM in each case.
For `COC(=O)C(=O)C(C(=O)C(=O)Nc1cc([N+](=O)[O-])ccc1[N+](=O)[O-])c1nc2ccc(C(=O)c3ccccc3)cc2[nH]c1=O` (stereo not given), the TGI in experiment [1] was 30.9 µM; in experiment [2], above 100 µM; in experiment [3], 57.9 µM; in experiment [4], 66.5 µM; in experiment [5] it was above 100 µM; in experiment [6], above 100 µM.
With `CCC[CH2][Sn]([CH2]CCC)([S]C1=NCCS1)[S]C1=NCCS1`, the GI50 in [1] was 0.159 µM; in experiment [2] it was 0.275 µM; in [3] it was 0.0423 µM; in experiment [4], 0.117 µM; in [6] it was 0.268 µM. Moreover, the TGI in experiment [1] stood at 0.678 µM; in [2], 1.31 µM; in experiment [3] it was 0.169 µM; in [4], 0.435 µM; in [6] it was 1.45 µM.
With `O=C(CC1(O)C(=O)Nc2c(Cl)cc(Cl)cc21)c1ccc2ccccc2c1` (stereo not given), the TGI in experiment [1] was determined as 25.2 µM; in experiment [2], 26.7 µM; in experiment [3], 21.3 µM; in [4] it was 17.8 µM; in experiment [5] it was 20.6 µM; in experiment [6], 16.3 µM.
Regarding `CC12CC3CC(C)(C1)CC(N=[N+]=[N-])(C3)C2`, the TGI in experiment [1], in experiment [2], in experiment [3], in [4] and in [6] was above 100 µM in each case.
With `O=C1c2ccccc2C(=O)c2nc(-c3ccccc3)c(-c3ccccc3)nc21`, the TGI in experiment [1] was above 100 µM; in experiment [2], above 100 µM; in experiment [3], above 100 µM; in experiment [4], above 100 µM; in experiment [5] it was above 100 µM; in [6], 2.02 µM.
For the compound `CCCCCCCCCCCC(=O)OCC1OC(n2cc(F)c(=O)[nH]c2=O)C(N)C(O)C1O` (stereo not given), the TGI in experiment [2], in experiment [3], in experiment [4] and in experiment [6] was above 100 µM each time.
On to `CCOC(=O)/C=C1\Nc2ccccc2-n2nnnc21`, for which the TGI in experiment [2], in [3], in [4] and in experiment [6] was above 100 µM each time.
`Nc1ccn([C@@H]2C=C(CO)[C@@H](O)[C@H]2O)c(=O)n1`: the GI50 in experiment [7] is 0.05 µM; in [1], below 0.0625 µM; in experiment [2], 0.0625 µM; in experiment [9], 0.05 µM; in [4], 0.0677 µM; in experiment [10] it was 0.0377 µM. Further, the GI50 in experiment [6] was 0.275 µM. In addition, the TGI is 500 µM in experiment [7]; 1.84 µM in experiment [8]; 500 µM and > 625 µM in experiment [2]; 500 µM in experiment [9]; 449 µM and > 625 µM in experiment [4]; 500 µM in experiment [10]. In addition, the TGI was 2.19 µM in experiment [11]; 244 µM and > 625 µM in experiment [6].
